Measured values taken from article PMC6685790 (Nature structural & molecular biology, 2008).
Substitutions are numbered along the chain they refer to. Values belong to the compound of their own block, whether it stands above or below them.

Columns and labels:
Format in all cases: cell-based
GlyR α1^L134A = target: T1, GlyR α1^L134A (Homo sapiens, UniProt P23415, L162A); assay: Whole-cell recording of substituted GlyR in HEK cells; settings: α1^L134A
T1 sequence (P23415 29-457 L162A): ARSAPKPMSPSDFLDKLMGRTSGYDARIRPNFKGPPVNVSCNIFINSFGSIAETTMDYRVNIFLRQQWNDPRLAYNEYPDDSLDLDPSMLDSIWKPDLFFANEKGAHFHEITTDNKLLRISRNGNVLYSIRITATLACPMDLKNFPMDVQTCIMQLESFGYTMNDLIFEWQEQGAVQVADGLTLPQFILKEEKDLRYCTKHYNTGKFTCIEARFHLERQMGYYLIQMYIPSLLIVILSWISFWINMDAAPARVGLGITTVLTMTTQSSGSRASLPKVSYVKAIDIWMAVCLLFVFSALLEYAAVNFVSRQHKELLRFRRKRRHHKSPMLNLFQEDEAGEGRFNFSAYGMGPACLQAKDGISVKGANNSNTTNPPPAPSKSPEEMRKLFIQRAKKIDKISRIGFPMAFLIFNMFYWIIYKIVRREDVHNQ

GlyR α1^L118A = target: T2, GlyR α1^L118A (Homo sapiens, UniProt P23415, L146A); assay: as above
T2 sequence (P23415 29-457 L146A): T1 sequence (P23415 29-457 L162A) with L118A, A134L

GlyR α1^F99A = target: T3, GlyR α1^F99A (Homo sapiens, UniProt P23415, F127A); assay: as above; settings: α1^F99A
T3 sequence (P23415 29-457 F127A): T1 sequence (P23415 29-457 L162A) with F99A, A134L

GlyR α1^L98A = target: T4, GlyR α1^L98A (Homo sapiens, UniProt P23415, L126A); assay: as above; settings: α1^L98A
T4 sequence (P23415 29-457 L126A): T1 sequence (P23415 29-457 L162A) with L98A, A134L

GlyR α1 WT = target: T5, GlyR α1 WT (Homo sapiens, UniProt P23415); assay: Whole-cell recording of wild-type GlyR α1 expressed in HEK cells
T5 sequence (P23415 29-457): T1 sequence (P23415 29-457 L162A) with A134L

GlyR α1^F108A = target: T6, GlyR α1^F108A (Homo sapiens, UniProt P23415, F136A); settings: α1^F108A
T6 sequence (P23415 29-457 F136A): T1 sequence (P23415 29-457 L162A) with F108A, A134L

[1] = read-out: Zn^2+ Activation EC50, direct activation without glycine
[2] = read-out: Zn^2+ Inhibition IC50, modulation of EC50 glycine currents
[3] = maximal Zn^2+ response as percentage of maximal glycine response in same cell
[4] = direct activation without glycine

Glycine Imax (GlyR α1^L134A): 6.0 ± 0.3 nA
Glycine nH (GlyR α1^L134A; Hill slope): 3.0 ± 0.4
Glycine Imax (GlyR α1^L118A): 6.3 ± 0.7 nA
Glycine nH (GlyR α1^L118A; Hill slope): 3.00 ± 0.2
Glycine Imax (GlyR α1^F99A): 3.9 ± 0.4 nA
Glycine nH (GlyR α1^F99A; Hill slope): 2.3 ± 0.3
Glycine Imax (GlyR α1^L98A): 6.4 ± 0.5 nA
Glycine nH (GlyR α1^L98A; Hill slope): 1.9 ± 0.3
Glycine Imax (GlyR α1 WT): 6.8 ± 0.5 nA
Glycine nH (GlyR α1 WT; Hill slope): 2.7 ± 0.2
Glycine Imax (GlyR α1^F108A): 4.5 ± 0.5 nA
Glycine nH (GlyR α1^F108A; Hill slope): 2.3 ± 0.1
Structure (SMILES): NCC(=O)O [Glycine, glycine]

EC50 (GlyR α1^L134A; [1]): 60 ± 10 nM
IC50 (GlyR α1^L134A; [2]): > 1 mM
Zn^2+ Activation nH (GlyR α1^L134A; Hill slope): 1.3 ± 0.1
Zn^2+ Activation Relative efficacy (% Gly Imax) (GlyR α1^L134A; [3]): 38 ± 9 % Gly Imax
Zn^2+ Activation EC50 (GlyR α1^L118A; [4]): None
IC50 (GlyR α1^L118A; [2]): 10.3 ± 0.36 µM
EC50 (GlyR α1^F99A; [1]): 130 ± 30 nM
IC50 (GlyR α1^F99A; [2]): > 1 mM
Zn^2+ Activation nH (GlyR α1^F99A; Hill slope): 1.1 ± 0.1
Zn^2+ Activation Relative efficacy (% Gly Imax) (GlyR α1^F99A; [3]): 86 ± 13 % Gly Imax
EC50 (GlyR α1^L98A; [1]): 260 ± 80 nM
IC50 (GlyR α1^L98A; [2]): > 1 mM
Zn^2+ Activation nH (GlyR α1^L98A; Hill slope): 1.1 ± 0.2
Zn^2+ Activation Relative efficacy (% Gly Imax) (GlyR α1^L98A; [3]): 49 ± 5 % Gly Imax
Zn^2+ Activation EC50 (GlyR α1 WT; [4]): None
IC50 (GlyR α1 WT; [2]): 15 ± 2 µM
EC50 (GlyR α1^F108A; [1]): 2300 ± 600 nM
IC50 (GlyR α1^F108A; [2]): > 1 mM
Zn^2+ Activation nH (GlyR α1^F108A; Hill slope): 0.7 ± 0.1
Zn^2+ Activation Relative efficacy (% Gly Imax) (GlyR α1^F108A; [3]): 25 ± 6 % Gly Imax
Structure (SMILES): [Zn+2] [Zn^2+]
